# Test results published in paper PMC9841981 (Journal of Medicinal Chemistry, 2022).
# Columns and labels:
# P. aeruginosa = experiment: MIC assay in CAA medium supplemented with ferric iron; format: cell-based, Pseudomonas aeruginosa; conditions: CAA medium supplemented with ferric iron (100 μM)
# [1] = test system: P. aeruginosa ΔpvdFΔpchA with additional deletion of pfeA; experiment: Growth kinetics, additional deletion of pfeA; format: cell-based, Pseudomonas aeruginosa; conditions: 10 μM, CAA medium, 30 °C, 48 h, three independent biological replicates
# [2] = test system: P. aeruginosa ΔpvdFΔpchA strain; experiment: Antimicrobial susceptibility assay; conditions: iron-restricted CAA medium, MIC assay, 24 and 48 h
smiles,measurement,setting,value
"C#CCNC(=O)CN1CCN(CC(=O)NCCNC(=O)c2cccc(O)c2O)CCN(CC(=O)NCCNC(=O)c2cccc(O)c2O)CCN(CC(=O)NCCNC(=O)c2cccc(O)c2O)CC1 [Compound 2, Alkyne-DOTAM-OH]",antimicrobial effect in the presence of excess ferric iron,P. aeruginosa,lost their antimicrobial effect
"C#CCCCC(=O)Nc1c(CNC(=O)c2cccc(O)c2O)cc(CNC(=O)c2cccc(O)c2O)cc1CNC(=O)c1cccc(O)c1O [Compound 4, Alkyne-MECAM-OH]",growth in the strain lacking PfeA (OD 600 nm),[1],delayed growth slightly
CNC(C)C1CCC(N)C(OC2C(N)CC(N)C(OC3OCC(C)(O)C(NC)C3O)C2O)O1 (stereo not drawn) [Gentamicin],growth inhibition / antimicrobial activity (in words),[2],exhibited an activity in the expected range
